Results taken from patent US6303621A, “Method for treating cancers using a diiodo thyronine analogue having no significant hormonal activity and a vinca alkaloid and compositions comprising the same” (priority 1999, dated 2001).
Entries after “also recorded” stand apart in the source; their conditions may differ.

Legend:
[1] = tested on: DIME-tolerant clones
Protocol: (§3) DIME-tolerant clones DR6and DR 7 were isolated by incubation of cells in a mediim containing 1.5 μM DIME for 11 days. At that time surviving colonies were picked with the use of cloning rings and plated for growth in fresh mediim still containing 1.5 μM DIME. After two weeks of growth in the presence of drug the cells were aliquoted and frozen. For each experiment a vial of frozen cells was thawed, the cells were plated in the absence of drug, and incubated for 2-3 days in drug-free mediim.

[2] = tested on: non-malignant mouse pituitary adenoma; settings: in vivo; cited from earlier work
[3] = tested on: caspase 3; assay: Caspase 3 in cell-free extracts treated with drugs; assay type: biochemical; settings: results not shown
[4] = tested on: tadpole metamorphosis; settings: in vivo; cited from earlier work
[5] = tested on: human cancer cells; assay: Cytostatic / cytocidal activity of DIME analogues on human cancer cells; assay type: cell-based
Description: Such tests may also screen for the ability of a particular compound to inhibit malignant tumor cell growth in vitro or in vivo or abolish tumorigenicity of malignant cells.
As will be appreciated by the skilled artisan, many varieties of malignant tumor cell cultures and cell lines may be used to screen for activity, including but not limited to HL-60, HT-144, E-ras-20, DU-145, MDA-168, MCF-7, 855-2 and MDA-MB-231. Of course, other in vitro and/or in vivo assays as will be apparent to the skilled artisan to screen for anti-tumor and/or anti-cancer activity may also be employed to identify effective diiodo thyronine analogues useful in the present invention.

[6] = tested on: metaphase arrest in cancer cells; assay: Metaphase block (mitotic block); assay type: cell-based
Description: Metaphase was quantitated as reported by Mendeleyev et al., International Journal of Oncology 10:689-695 (1997).
Since vincristine and vinblastine were equivalent here we illustrate only DIME-vinblastine interaction on mitotic block.

[7] = tested on: malignant tumor growth; assay: Activity of DIME in vivo (general statement)
[8] = tested on: thyroid; settings: rats; as compared to thyroxine; cited from earlier work
[9] = tested on: tubulin α+β; assay: Inhibition of tubulin polymerization / assembly of microtubules; assay type: biochemical; settings: FIG. 4b
Protocol: The optical tests were performed as reported by Buki et al., International Journal of Oncology 10:911-913 (1997).

[10] = tested on: MDA-MB-231 human mammary cancer cells; assay: Cell growth kinetics, median effect and isobologram; assay type: cell-based; settings: 0.75 μM DIME (or DIPE) or 1-2 nM vincristine alone
Protocol: (§1) c. MDA-MB-231 human mammary cancer cells were cultured and treated as reported previously by Mendeleyev et al., International Journal of Oncology 10:689-695 (1997) and Zhen et al., International Journal of Oncology 10:689-695 (1997). For the assay of cell growth kinetics cells, were seeded into 2cm^2 wells (24-well plates) at a density of 8×10^3 /cm^2 at the time of seeding. Vincristine (or vinblastine) and DIME (or DIPE) were added from DMSO dilutions (1-2 μl/ 500 μl culture mediim) either from separate drug solutions or for the construction of median effect plot (FIG. 1) from a pre-made mixture of both drugs (e.g. 0.75 μM DIME+2 nM vincristine) and simultaneous dilutions thereof (Chou et al. Eur. J. Biochem. 115: 207-216 (1981)). The cultures were incubated at 37° C. for 4 days and growth rates, leading to near confluency in drug-free controls, were monitored by cell counting in a haemocytometer after detachment by trypsin treatment Mendeleyev et al., International Journal of Oncology 10:689-695 (1997) and Zhen et al., International Journal of Oncology 10:689-695 (1997). Mathematical analysis of growth curves and median effects and isobolograms were carried out by published procedures (Chou et al. J. Theor. Biol. 65: 345-356 (1977), Chou et al. Eur. J. Biochem. 115: 207-216 (1981) and Chou et al. Adv. in Enzyme Regulation 22:27-55 (1984)) and error bars indicate SD=Σx^2 +L -(Σx)^2 /n where X is the numerical results with n=3-5.
Kinetics of vincristine-DIME interactions: Interpretation of conventional isobolograms, consisting of plots of I50 values of two drugs alone and in combination is valid only if it is proven kinetically that both drugs bind at mutually exclusive sites.
Isobologram analysis of the combined action of DIME and vincristine is illustrated in FIG. 2, and it is evident that the action of the two drugs in combination exceed an additive effect, which is depicted by a concave curve, contrasting with additive action, which would display a straight line connecting the I50 values for each drug alone (dotted line in FIG. 2). […]

[11] = tested on: MDA-MB-231 human mammary cancer cells; assay: Colony formation (cell killing); assay type: cell-based
Protocol: as §1
(§2) e. Colony formation was quantitated as reported by. Each colony of 50 cells is the outgrowth from one cell, plated 10 days before colony counting.

[12] = tested on: DIME-tolerant clones; assay: DIME uptake by DIME-tolerant clones; settings: DIME-tolerant clones grown in 1.5 μM DIME
Protocol: as §3

[13] = tested on: caspase 3; assay: Caspase 3 assay in drug-treated cells; assay type: cell-based, human; settings: 0.75 μM DIME or 2 nM vincristine alone, 3 days
Protocol: g. Caspase 3 assay. MDA 231 cells were grown for 3 days in the absence of drugs (control) or in the presence of 0.75 μM DIME, or in the presence of 2 nM vincristine, or in the presence of both drugs. After harvesting and washing the cells with PBS, they were lysed in a lysis buffer (10 mM HEPES, 5 mM DTT, 2 mM EDTA, 1 mM PMSF, 0.1% CHAPS, 20 μg/ml each of aprotinin, leupeptin, pepstatin, pH 7.4), and were frozen and thawed 3 times. […] Each cell extract was incubated at room temperature with and without preincubation with the caspase inactivator DEVD-CMK. The difference of fluorescence was plotted against time. The fluorescence was calibrated with the fluorophore AFC.

[14] = Toxicity, daily oral dosing in nude mice; assay type: in vivo; settings: daily oral dose 1 g/kg, 12-15 days
Protocol: Ten nude mice were administered a daily oral dose of ^14 C-labeled DIME (Compound 1) (1.0 g/kg, 0.1 mL in corn oil) for a period of 12-15 days.

[15] = tested on: cells (DNA breaks); assay: DNA breaks in cells incubated with DIME; assay type: cell-based
[16] = tested on: DIME-tolerant clones DR6 and DR7; assay: Colony formation of DIME-tolerant clones; assay type: cell-based, human; settings: concentrations that reduce colony formation by 10^3 in parent line
Description: as §2

## COC(=O)c1cc(I)c(Oc2ccc(OC)cc2)c(I)c1 [DIME, methyl 3,5-diiodo-4-(4'-methoxyphenoxy) benzoate]
[1]
  Drug permeation in DIME-tolerant cells: significant decrease of drug permeation
[2]
  Growth of non-malignant mouse pituitary tumor: no inhibitory activity
[3]
  Caspase 3 increase in cell-free extracts: do not show an increase in caspase 3
[4]
  Metabolic or cell differentiating activity (tadpole metamorphosis): no significant metabolic or cell differentiating activity
[5]
  Cytostatic and cytocidal activity in cellular assays: highly active
  Growth of malignant cell types: inhibit the growth of a variety of malignant cell types
[6]
  M-block: induces M-block
[7]
  Activity in vivo: highly active
[8]
  Inhibition of uptake of iodine into the thyroid: 15%
[9]
  Inhibition of assembly of microtubules, DIME versus DIPE: equivalency; also recorded: Inhibitory effects
[10]
  Growth rate with single drug: do not elicit effects that exceed the SD of average cell growth rates; also recorded: fall within SD values
[11]; FIG. 4a
  Inhibition of colony formation, DIME versus DIPE: equivalency; also recorded: Equivalent effectivity
[11]; FIG. 8, parent (wild type) cell line
  Reduction of colony formation in parent cell line (factor): 10^3
[12]
  Reduction of DIME uptake: 50%
[13]
  Activation of caspase 3, single drug: small rate of caspase 3 activity
[14]
  Ill effects: remarkably nontoxic; also recorded: No ill effects were observed
[15]
  DNA breaks: induces DNA breaks
[16]
  Inhibition of colony formation of DR6 and DR7 clones: only marginal inhibition of colony formation
